Reference: patent US20130283404A1, “EPIGENETICS IN AUTOIMMUNITY” (The Regents of the University of Michigan, priority 2012, published 2013)

Tests used:
Format in all cases: cell-based, human
X chromosome MicroRNA = assay: Genome-wide qPCR miRNA expression profiling of 5-azaC treated CD4+ T cells; conditions: 72 hrs; for LET-7f-2 Fold change (5AzaC/No 5Aza): table line 4
Description: (§1) For in vitro demethylation assay, isolated CD4+ cells were cultured with 5 μM 5-AzaC for 72 hours. The cells were then treated (restimulated) or not with 5 ng/ml PMA and 500 ng/ml ionomycin or not for an additional 6 hr, and CD4+ cells were recovered and washed 2 times with PBS. Total RNA including miRNAs was isolated using miRNeasy kit (Qiagen) for miRNA and mRNA expression analysis. Genomic DNA was isolated using Qiagen DNeasy Blood & Tissue Kit. (Hewagama, 2009; Lu, 2007; Quddus, 1993; herein incorporated by reference in their entireties).
Genome-wide qPCR miRNA expression profiling was performed using (System Biosciences (SBI), Cat# RA660A-1) profiler. Briefly, 800 ng totals RNA containing miRNA was converted to complementary DNA with the QuantiMir kit, according to the manufacturer protocol. Real time PCR in 384 well format using miRNA-specific primers was performed using ABI 7900 real-time PCR system at University of Michigan microarray or sequencing core facilities. Resulting data was analyzed by using Human miRNome profiler software provided by SBI.
To identify methylation sensitive […], miRNA expression profiles were compared between 5-AzaC treated CD4+ cells and non-treated controls from healthy men and women. Differentially expressed miRNAs were identified. Then the X chromosome encoded miRNA's increased by 5-azaC in women, compared to men were identified.
Experiments were conducted during the development of embodiments of the present invention to identify X-linked miRNA's increasing more in experimentally demethylated T cells from women than men and also overexpressed in women relative to men with active lupus. The human X chromosome encodes 128 miRNA while the Y chromosome encodes only 15 (Ensembl release 65—December 2011 © WTSI/EBI WTSI/EBI). PBMC from the peripheral blood of healthy men and healthy women ages 23-35 were stimulated with PHA and treated with 5-azaC as before. 72 hrs later CD4+ T cells were purified and miRNA's surveyed using PCR arrays detecting 80 X chromosome and 824 autosomal miRNAs but no Y miRNA's.

OGT regulatory elements = assay: Methylcytosine affinity purification (MeCAP) of OGT regulatory region in CD4+ T cells; conditions: CD4+ T cells from women but not men
Description: (§2) Genomic DNA from isolated CD4+ T cells (˜3×10^6), was extracted using Qiagen DNeasy Blood & Tissue Kit. 3-5 μg isolated DNA was sonicated to average of ˜500 bp with a Covaris DNA shearing system at UM sequencing core. Fragments were size-evaluated using an Agilent 2100 Bioanalyzer. Approximately 400 ng sonicated DNA was subjected to MeCAP experiments using Active Motif METHYLCOLLECTOR Ultra Kit according to the manufacturer's instructions. DNA fragments from the methylation-enriched fraction were purified using QIAquick PCR Purification Kit (Qiagen). MeCAP enriched and reference input samples were quantitated using quantitative real time PCR(RT-qPCR) with primers designed for specific regions flanking the putative transcription start site of the gene promoters. Differentially methylated regions between patient and normal healthy controls were identified by comparing % enrichment (relative to input) of the 500 bp window of methylated fragments.
(§3) The overexpression of OGT and CXCR3 in 5-azaC treated CD4+ T cells from women relative to men is consistent with demethylation of regulatory regions on their silenced X chromosome. […]

[1] = test system: CXCR3 regulatory elements; assay: Methylcytosine affinity purification (MeCAP) of CXCR3 regulatory region in CD4+ T cells; conditions: CD4+ T cells from women
Description: as §2, §3

CXCR3 [2] = assay: CXCR3 mRNA by RT-PCR in 5-azaC treated CD4+ T cells; conditions: 72 hours, restimulated with PMA and ionomycin, more in women than in men
Description: as §1
(§4) Up to 1000 ng total RNA from CD4+ T cells was transcribed into cDNA using Transcriptor First Strand cDNA synthesis kit (Roche) according to the manufacture's instruction. The cDNA was then subjected to real-time PCR using a Rotor-Gene 3000 thermocycler (Corbett). Roche (Basle) FastStart universal SYBR green master (Roche) mix containing 1 μl template cDNA and 0.5 μM forward and reverse primers in a total volume of 20 μl was annealed at 56° C. for a total of 40 cycles. The fold change of expression was calculated using ACTB and 18sRNA as internal reference genes.
(§5) The sex-specific differences in gene expression were confirmed in experimentally demethylated CD4+ T cells from an additional 9 pairs of healthy men and women. […] CD4+ T cells were then purified using magnetic beads, RNA isolated, and OGT and CXCR3 mRNA levels quantitated by RT-PCR. […]

CXCR3 [3] = assay: CXCR3 protein by immunoblotting and flow cytometry on 5-azaC treated CD4+ T cells; conditions: for CXCR3 MFI: mean±SEM
Description: (§6) CD4 ? T cell CXCR3 levels were measured by flow cytometry using antibodies from Santa Cruz Biotechnology. OGT was measured by solubilizing bead-purified CD4 ? T cells, fractionating the lysates by electrophoresis, transferring the proteins to nitrocellulose membranes, then probing with anti-OGT antibodies (Abcam). CBL protein levels were measured by immunoblotting with anti-CBL antibody (BD Biosciences) and approaches similar to OGT. Protein bands were visualized using an ECL chemiluminescence detection system, then scanned and quantified with ImageQuant 5.2 software. Values were normalized to b-actin and levels expressed relative to non-stimulated CD4 ? T cells. (Basu, 2009; Lu, 2007, Gorelik, 2012; herein incorporated by reference in their entireties).
CXCR3 protein levels were similarly compared on 5-azaC treated CD4+ T cells with and without restimulation using immunoblotting and flow cytometry. In contrast to OGT, using untreated and 5-azaC treated CD4+ T cells from male-female pairs, no increase in CXCR3 protein was observed (CXCR3MFI: female 320+91, male 316+108, mean±SEM) despite the increase in CXCR3 mRNA in the women.

OGT [4] = assay: OGT protein by immunoblotting in 5-azaC treated CD4+ T cells; conditions: CD4+ T cells from women but not men, 72 h
Description: as §6
PBMC from N healthy men and women were stimulated with PHA, treated with 5-azaC, and 72 hours later restimulated with PMA and ionomycin as for an additional 6 hours as before. CD4+ T cells were isolated and OGT levels compared by immunoblotting.

[5] = test system: miR-98/Let 7-f2 gene cluster; assay: Methylation of regulatory regions 5' to the miR-98/Let 7-f2 gene cluster in CD4+ T cells; conditions: T cells from women but not men
Description: as §2
Methylation of potential regulatory regions 5′ to the miR-98/Let 7-f2 gene cluster was compared in experimentally demethylated CD4 ? T cells from women relative to men, and in CD4 ? T cells from women with active lupus.

OGT [6] = assay: OGT mRNA by RT-PCR in 5-azaC treated CD4+ T cells; conditions: 72 hours, restimulated with PMA and ionomycin, more in women than in men
Description: as §1, §4, §5

## Nc1ncn([C@@H]2O[C@H](CO)[C@@H](O)[C@H]2O)c(=O)n1 [5-azaC]
X chromosome MicroRNA; Female CD4+ T cells
  MIR-98 Fold change (5AzaC/No 5Aza): 1.7 ± 0.2
  MIR-106a Fold change (5AzaC/No 5Aza): 5.2 ± 1.5
  MIR-188(3p) Fold change (5AzaC/No 5Aza): 12.7 ± 3.0
  MIR-421 Fold change (5AzaC/No 5Aza): 17.4 ± 5.0
  MIR-424 Fold change (5AzaC/No 5Aza): 2.2 ± 0.5
  MIR-450a Fold change (5AzaC/No 5Aza): 2.4 ± 0.7
  MIR-450b Fold change (5AzaC/No 5Aza): 14.3 ± 4.4
  MIR-503 Fold change (5AzaC/No 5Aza): 14.3 ± 4.4
  MIR-508(3p) Fold change (5AzaC/No 5Aza): 4.2 ± 1.1
  LET-7f-2 Fold change (5AzaC/No 5Aza): 3.8 ± 1.2
X chromosome MicroRNA; Male CD4+ T cells
  MIR-98 Fold change (5AzaC/No 5Aza): 1.4 ± 0.2
  MIR-106a Fold change (5AzaC/No 5Aza): 1.1 ± 0.4
  MIR-188(3p) Fold change (5AzaC/No 5Aza): 4.1 ± 2.1
  MIR-421 Fold change (5AzaC/No 5Aza): 7.8 ± 3.7
  MIR-424 Fold change (5AzaC/No 5Aza): 1.1 ± 0.3
  MIR-450a Fold change (5AzaC/No 5Aza): 1.1 ± 0.8
  MIR-450b Fold change (5AzaC/No 5Aza): 3.8 ± 1.8
  MIR-503 Fold change (5AzaC/No 5Aza): 3.8 ± 1.8
  MIR-508(3p) Fold change (5AzaC/No 5Aza): 1.1 ± 1.3
  LET-7f-2 Fold change (5AzaC/No 5Aza): 0.5 ± 0.2
OGT regulatory elements
  methylation of region −412 to −88 5′ to OGT transcription start site: significant demethylation
[1]
  methylation of region −1567 to −1067 5′ to the CXCR3 transcription start site: significant decrease
CXCR3 [2]
  CXCR3 transcripts: increases
CXCR3 [3]; female CD4+ T cells
  CXCR3 MFI: 320+91
CXCR3 [3]; male CD4+ T cells
  CXCR3 MFI: 316+108
CXCR3 [3]; untreated and 5-azaC treated CD4+ T cells from male-female pairs
  CXCR3 protein: no increase
OGT [4]
  OGT protein: increases
[5]
  methylation of regulatory regions 5′ to the miR-98/Let 7-f2 gene cluster: significantly demethylates
OGT [6]
  OGT transcripts: increases
